Experimental data: ChEMBL document CHEMBL3108719, “Synthesis and in Vitro Evaluation of a Peptidomimetic Inhibitor Targeting the Src Homology 2 (SH2) Domain of STAT6” (ACS Med Chem Lett, 2014)
Active and inactive are the calls of the source. The rule behind the calls is not given here.

Experiments:
Assay type in all cases: cell-based
[1] = Cytotoxicity against human BEAS2B cells up to 10 uM after 72 hrs by MTS assay; details: beas-2b
[2] = molecular target: T1, Signal transducer and activator of transcription 6 (Homo sapiens) (UniProt P42226); experiment: Inhibition of IL4-stimulated SH2 domain of STAT6 phosphorylation at Tyr641 in human BEAS2B cells at 1 to 10 uM incubated for 2 to 48 hrs prior to IL-4 challenge measured after 1 hr by Western blotting analysis
T1 sequence (whole entry): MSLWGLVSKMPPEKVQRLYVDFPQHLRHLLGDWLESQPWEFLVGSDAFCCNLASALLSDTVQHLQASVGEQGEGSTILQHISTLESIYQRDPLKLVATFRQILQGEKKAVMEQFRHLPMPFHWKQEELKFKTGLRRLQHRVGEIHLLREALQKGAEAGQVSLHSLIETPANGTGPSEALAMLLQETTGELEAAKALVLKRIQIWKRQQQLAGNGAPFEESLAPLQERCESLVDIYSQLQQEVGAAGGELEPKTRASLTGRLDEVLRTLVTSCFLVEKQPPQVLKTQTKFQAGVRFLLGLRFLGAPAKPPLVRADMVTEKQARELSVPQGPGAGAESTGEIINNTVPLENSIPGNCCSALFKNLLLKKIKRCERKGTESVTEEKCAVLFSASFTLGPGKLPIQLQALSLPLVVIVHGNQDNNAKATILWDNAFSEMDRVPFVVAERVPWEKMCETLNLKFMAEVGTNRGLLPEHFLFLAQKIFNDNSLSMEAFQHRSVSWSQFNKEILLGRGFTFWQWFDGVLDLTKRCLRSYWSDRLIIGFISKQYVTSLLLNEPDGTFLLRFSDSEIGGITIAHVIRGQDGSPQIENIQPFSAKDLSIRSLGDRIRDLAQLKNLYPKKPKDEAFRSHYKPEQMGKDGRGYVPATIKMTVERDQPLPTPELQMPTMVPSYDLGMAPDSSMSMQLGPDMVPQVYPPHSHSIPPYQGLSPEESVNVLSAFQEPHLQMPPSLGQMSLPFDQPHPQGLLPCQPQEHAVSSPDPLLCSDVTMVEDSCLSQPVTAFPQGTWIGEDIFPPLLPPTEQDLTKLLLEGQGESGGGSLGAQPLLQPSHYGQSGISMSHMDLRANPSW

[3] = molecular target: T1, Signal transducer and activator of transcription 6 (Homo sapiens); experiment: Inhibition of IL4-stimulated SH2 domain of STAT6 phosphorylation at Tyr641 in human BEAS2B cells at 1 to 10 uM incubated for 2 hrs prior to IL-4 challenge measured after 1 hr by Western blotting analysis
[4] = molecular target: T1, Signal transducer and activator of transcription 6 (Homo sapiens); experiment: Inhibition of IL13-stimulated SH2 domain of STAT6 phosphorylation at Tyr641 in human BEAS2B cells at 1 to 10 uM incubated for 2 hrs prior to IL-13 challenge measured after 1 hr by Western blotting analysis

inhibition [2]: Active | inhibition [3]: Active | inhibition [4]: Active
Structure (SMILES): CC(C)(C)C(=O)OCOP(=O)(OCOC(=O)C(C)(C)C)C(F)(F)c1ccc(/C=C/C(=O)N[C@H](C(=O)N2CCC[C@H]2C(=O)N(c2ccccc2)c2ccc(I)cc2)C(C)(C)C)cc1
Activity [1]: Non-toxic
